Drawing on ChEMBL document CHEMBL1147179, “Synthesis and antimicrobial activity of some novel phenyl and benzimidazole substituted benzyl ethers” (2007), this text covers MIC and Activity for 13 molecules.

The test system of one experiment is Pichia kudriavzevii. Briefly: Antifungal activity against Candida krusei ATCC 6258 by macro-broth dilution assay. In kind it is functional.
A further experiment has as its system Escherichia coli. Briefly: Antibacterial activity against Escherichia coli ATCC 25922 at 100 ug/ml by diffusion method. The format is functional, organism-based.
Another experiment has as its system Candida albicans. Briefly: Antifungal activity against Candida albicans ATCC 10231 by macro-broth dilution assay. In kind it is functional.
Experiment [1] concerns Staphylococcus aureus. Description: Antibacterial activity against methicillin-resistant Staphylococcus aureus ATCC 43300 by macro-broth dilution assay. In kind it is functional.
Experiment [2] deals with Staphylococcus aureus. Description: Antibacterial activity against Staphylococcus aureus ATCC 25923 by macro-broth dilution assay. The format is functional.

In brackets after ≈: the same amount, converted by molar mass. Activity calls are given as the source filed them. No cut-off for these calls is given here.

On to `Clc1ccc(COC(Cn2ccnc2)c2ccc(Cl)cc2Cl)c(Cl)c1` (stereo unspecified) [MICONAZOLE], for which the MIC against Pichia kudriavzevii turned out to be 0.78 µg/mL (≈ 1.87 µM); in the experiment with Candida albicans it was 0.19 µg/mL (≈ 0.457 µM). The result with Escherichia coli was inactive.

As to `Clc1ccc(COC(Cn2cnc3ccccc32)c2ccccc2)c(Cl)c1` (stereo unspecified), the MIC against Pichia kudriavzevii came to 25 µg/mL (≈ 62.9 µM); with Staphylococcus aureus [1], 12.5 µg/mL (≈ 31.5 µM); with Candida albicans, 25 µg/mL (≈ 62.9 µM); in the experiment with Staphylococcus aureus [2] it was 3.12 µg/mL (≈ 7.85 µM). In addition, the result in the experiment with Escherichia coli was inactive.

For the molecule `OC(Cn1cncn1)(Cn1cncn1)c1ccc(F)cc1F` [FLUCONAZOLE], the figures for the MIC in the experiment with Pichia kudriavzevii and against Candida albicans were 25 µg/mL (≈ 81.6 µM) and 0.78 µg/mL (≈ 2.55 µM), respectively. For the same molecule, the outcome with Escherichia coli was inactive.

In the case of `Clc1ccc(COC(Cn2cnc3ccccc32)c2ccccc2)cc1Cl` (stereo unspecified), the MIC against Pichia kudriavzevii was determined as 25 µg/mL (≈ 62.9 µM); against Staphylococcus aureus [1] it was 25 µg/mL (≈ 62.9 µM); against Candida albicans it was 12.5 µg/mL (≈ 31.5 µM); in the experiment on Staphylococcus aureus [2], 3.12 µg/mL (≈ 7.85 µM). Moreover, the outcome in the experiment on Escherichia coli was inactive.

Regarding `O=C(O)c1cn(C2CC2)c2cc(N3CCNCC3)c(F)cc2c1=O`, the outcome in the experiment with Escherichia coli was inactive.

On to `Fc1ccc(COC(Cn2cnc3ccccc32)c2ccccc2)cc1` (stereo unspecified), for which the MIC turned out to be 25 µg/mL (≈ 72.2 µM) against Pichia kudriavzevii, 25 µg/mL (≈ 72.2 µM) against Staphylococcus aureus [1], 25 µg/mL (≈ 72.2 µM) with Candida albicans and 12.5 µg/mL (≈ 36.1 µM) against Staphylococcus aureus [2]. Further, the result in the experiment on Escherichia coli was inactive.

As to `Brc1ccc(COC(Cn2cnc3ccccc32)c2ccccc2)cc1` (stereo unspecified), the minimum inhibitory concentration (MIC) with Pichia kudriavzevii stood at 25 µg/mL (≈ 61.4 µM); with Staphylococcus aureus [1] it was 12.5 µg/mL (≈ 30.7 µM); in the experiment on Candida albicans it was 25 µg/mL (≈ 61.4 µM); in the experiment on Staphylococcus aureus [2], 3.12 µg/mL (≈ 7.66 µM). Besides, the outcome in the experiment on Escherichia coli was inactive.

In the case of `Clc1ccc(COC(Cn2cnc3ccccc32)c2ccccc2)cc1` (stereo unspecified), the MIC with Pichia kudriavzevii came out at 25 µg/mL (≈ 68.9 µM); in the experiment with Staphylococcus aureus [1] it was 12.5 µg/mL (≈ 34.4 µM); in the experiment with Candida albicans it was 25 µg/mL (≈ 68.9 µM); against Staphylococcus aureus [2], 3.12 µg/mL (≈ 8.6 µM). For the same molecule, the result in the experiment with Escherichia coli was inactive.

With `CC1(C)S[C@@H]2[C@H](NC(=O)[C@H](N)c3ccccc3)C(=O)N2[C@H]1C(=O)O` [AMPICILLIN], in the experiment with Escherichia coli, the outcome was inactive. The MIC in the experiment on Staphylococcus aureus [1] was 25 µg/mL (≈ 71.5 µM); in the experiment with Staphylococcus aureus [2] it was 0.78 µg/mL (≈ 2.23 µM).

Turning to `Clc1cccc(Cl)c1COC(Cn1cnc2ccccc21)c1ccccc1` (stereo unspecified), the MIC is 12.5 µg/mL (≈ 31.5 µM) in the experiment with Pichia kudriavzevii, 6.25 µg/mL (≈ 15.7 µM) against Staphylococcus aureus [1], 12.5 µg/mL (≈ 31.5 µM) with Candida albicans and 3.12 µg/mL (≈ 7.85 µM) against Staphylococcus aureus [2]. For the same molecule, the outcome in the experiment on Escherichia coli was inactive.

With `c1ccc(COC(Cn2cnc3ccccc32)c2ccccc2)cc1` (stereo unspecified), the MIC with Pichia kudriavzevii, with Staphylococcus aureus [1], against Candida albicans and with Staphylococcus aureus [2] was 25 µg/mL (≈ 76.1 µM) each time. Further, the result with Escherichia coli was inactive.

With `Clc1ccc(Cl)c(COC(Cn2cnc3ccccc32)c2ccccc2)c1` (stereo unspecified), in the experiment on Escherichia coli, the outcome was inactive.

Take `FC(F)(F)c1ccc(COC(Cn2cnc3ccccc32)c2ccccc2)cc1` (stereo unspecified): the MIC was found to be 12.5 µg/mL (≈ 31.5 µM) in the experiment on Pichia kudriavzevii, 12.5 µg/mL (≈ 31.5 µM) in the experiment on Staphylococcus aureus [1], 25 µg/mL (≈ 63.1 µM) against Candida albicans and 6.25 µg/mL (≈ 15.8 µM) in the experiment on Staphylococcus aureus [2]. Besides, in the experiment on Escherichia coli, the result was inactive.
